Publication PMC8128204, “Development of 3-methyl/3-(morpholinomethyl)benzofuran derivatives as novel antitumor agents towards non-small cell lung cancer cells” (Journal of Enzyme Inhibition and Medicinal Chemistry, 2021)
Values after ≈ are worked out from the molar mass of the structure shown. Like-named read-outs stand apart in the source and are kept apart here.

Key:
[1] = tested on: A549 cells; test: Annexin V-FITC/PI apoptosis assay, A549; type: cell-based, human; settings: A549, at IC50 concentration; control 1.37%
Description: The apoptotic effect of the three benzofurans (4b, 15a and 16a) was evaluated using Annexin VFITC/PI (AV/PI) dual staining assay to validate if their observed cytotoxic effect is due to non-specific necrosis or physiological apoptosis. […] Moreover, the apoptotic effects of 3-(morpholinomethyl)benzofuran derivatives 15a and 16a were evaluated in NCI-H23 cancer cell line.
(§1) Lung cancer A549 cells were treated with benzofuran 4b, whereas NCI-H23 cells were treated […]
(§2) twice with ice-cold phosphate buffered saline (PBS). Subsequently, the treated cells were collected by centrifugation, fixed in ice-cold 70% (v/v) ethanol, washed with PBS, re-suspended with 100 μg/mL RNase, stained with 40 μg/mL PI, and analyzed by flow cytometry using FACS Calibur (Becton Dickinson, BD, Franklin Lakes, NJ, USA). The cell cycle distributions were calculated using CellQuest software 5.1 (Becton Dickinson).
3. Annexin V-FITC Apoptosis Assay […]
Cells were then rinsed in binding buffer and resuspended in 150 μL of binding buffer with the addition of 1 μL of DAPI (1 μg/μL in PBS). Cells were then analyzed using the flow cytometer BD FACS Canto II and the results were interpreted with FlowJo7.6.4 software (Tree Star, Ashland, 4. VEGFR-2 Kinase Inhibitory Activity […]

[2] = molecular target: VEGFR-2 (Homo sapiens, UniProt P35968); test: VEGFR-2 kinase inhibitory assay (VEGFR2(KDR) Kinase Assay Kit)
Chain of VEGFR-2 (P35968 20-1356): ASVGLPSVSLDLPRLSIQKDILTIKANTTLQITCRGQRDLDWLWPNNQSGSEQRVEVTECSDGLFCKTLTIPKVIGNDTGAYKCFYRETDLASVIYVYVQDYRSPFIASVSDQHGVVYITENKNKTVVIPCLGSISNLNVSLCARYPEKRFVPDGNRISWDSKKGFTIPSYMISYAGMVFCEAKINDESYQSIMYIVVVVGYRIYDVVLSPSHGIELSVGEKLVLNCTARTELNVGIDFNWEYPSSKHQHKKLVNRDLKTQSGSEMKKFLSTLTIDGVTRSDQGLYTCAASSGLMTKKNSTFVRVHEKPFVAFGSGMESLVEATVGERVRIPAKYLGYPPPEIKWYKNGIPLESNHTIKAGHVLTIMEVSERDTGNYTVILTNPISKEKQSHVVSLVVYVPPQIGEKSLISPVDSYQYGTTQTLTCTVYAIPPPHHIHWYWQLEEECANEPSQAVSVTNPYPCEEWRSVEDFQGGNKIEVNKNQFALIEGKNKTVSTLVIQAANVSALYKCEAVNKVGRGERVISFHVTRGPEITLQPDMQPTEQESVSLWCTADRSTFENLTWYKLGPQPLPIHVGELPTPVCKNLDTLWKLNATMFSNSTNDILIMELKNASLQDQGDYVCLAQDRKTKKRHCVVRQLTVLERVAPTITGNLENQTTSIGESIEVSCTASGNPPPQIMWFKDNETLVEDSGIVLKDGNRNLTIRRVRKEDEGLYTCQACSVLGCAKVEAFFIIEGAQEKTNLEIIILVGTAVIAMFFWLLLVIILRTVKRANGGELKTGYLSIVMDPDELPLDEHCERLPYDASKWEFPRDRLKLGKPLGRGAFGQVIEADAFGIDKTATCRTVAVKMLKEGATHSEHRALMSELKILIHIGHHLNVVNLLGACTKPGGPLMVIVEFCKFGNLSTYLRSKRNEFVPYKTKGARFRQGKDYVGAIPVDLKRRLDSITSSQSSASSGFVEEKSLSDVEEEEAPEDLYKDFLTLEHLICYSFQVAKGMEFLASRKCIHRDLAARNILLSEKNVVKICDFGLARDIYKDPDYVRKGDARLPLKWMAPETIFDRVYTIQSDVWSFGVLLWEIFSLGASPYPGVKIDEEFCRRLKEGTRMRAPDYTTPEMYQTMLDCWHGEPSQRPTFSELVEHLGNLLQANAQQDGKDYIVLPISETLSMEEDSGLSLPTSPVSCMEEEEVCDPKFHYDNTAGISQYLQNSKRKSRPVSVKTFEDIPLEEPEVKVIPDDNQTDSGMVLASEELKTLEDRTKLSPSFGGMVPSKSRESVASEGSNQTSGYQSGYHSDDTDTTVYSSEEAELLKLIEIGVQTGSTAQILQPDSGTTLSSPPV
From the text: CA, USA), according to the manufacturer’s instructions.

[3] = tested on: A549 cells; test: Cell cycle analysis (PI flow cytometry), A549; type: cell-based, human; settings: A549, 24 h at IC50 concentration
Description: as §1
as §2, with “Dickinson). […]” for “Dickinson).”

[4] = tested on: NCI-H23 cells; test: MTT anti-proliferative assay, NCI-H23; type: cell-based, human; settings: Homo sapiens, NCI-H23, 48 h, mean ± SD of three experiments
Description: (§3) The antiproliferative activity of the synthesised derivatives of the 3-methylbenzofuran series (4a–d, 6a–c, 8a–c and 11) and the 3-(morpholinomethyl)benzofuran series (15a–c, 16a–b, 17a–b and 18) was evaluated against non-small cell lung carcinoma (NSCLC) A549 and NCI-H23 cell lines, following the procedures of the MTT assay. […] 1. Anti-proliferative action toward human […] cell lines […]
(§4) The two examined human non-small cell lung carcinoma cell lines (A549 and NCI-H23) have been obtained from American Type Culture Collection (ATCC). The cells were maintained in Dulbecco's modified Eagle's medium (DMEM) supplemented with 10% heat inactivated fetal calf serum (GIBCO), penicillin (100 U/ml) and streptomycin (100 µg/ml) at 37 °C in humidified atmosphere containing 5% CO2. […]
(§5) flask in 5 ml of culture medium. The anti-proliferative activity of the tested 3-methylbenzofurans (4a-d, 6a-c, 8a-c and 11) and 3-(morpholinomethyl)benzofurans (15a-c, 16a-b, 17a-b and 18) measured in vitro using the MTT assay. Briefly, cells were plated out in 96-well microtiter plate (0.5X10^4 cells/well) and incubated for 24 h before treatment with the tested benzofurans to allow cells to attach to the bottom of the well of the plate. Tested benzofuranswere were dissolved in DMSO at 1 mg/ml immediately before use and diluted to the appropriate volume just before addition to the cell culture. […]
(§6) added to the cells (three wells were prepared for each individual dose). Cells were incubated with […]
(§7) At the end of exposure, MTT […]
(§8) solution in PBS (5 mg/ml) was then added to all well including no cell blank and left to incubate for 90 min. The formation of formazan crystals were visually confirmed using phase contract microscopy. DMSO (100 µl/well) was added to dissolve the formazan crystals with shaking for 10 min after which the absorbance was read at 590 nm against no cell blanks on a microplate reader.
(§9) The relation between percent of surviving fraction and log drug concentration is plotted to get the survival curve for each cell line.

[5] = tested on: WI-38 cell line; test: Cytotoxic activity against non-tumorigenic WI-38 cell line; type: cell-based, human
From the text: Antiproliferative agents are designed to inhibit the cellular growth of tumour cells selectively, while sparing the normal cells.

[6] = tested on: M. tuberculosis ATCC 27294; test: Microplate Alamar Blue Assay, anti-tubercular activity; type: cell-based; settings: MABA, 7 days
[7] = tested on: A549 cells; test: MTT anti-proliferative assay, A549; type: cell-based, human; settings: Homo sapiens, A549, 48 h, mean ± SD of three experiments
Description: as §3, §4, §5, §6, §7, §8, §9

Compound: COc1ccc(NC(=S)NNC(=O)c2oc3ccccc3c2C)cc1 [Compound 4b, N-(4-Methoxyphenyl)-2-(3-methylbenzofuran-2-carbonyl)hydrazine-1-carbothioamide]
- apoptosis (total) [1]: 42.05%
- IC50 [2]: 0.078 ± 0.0046 µM
- S phase, fold vs control ([3]; attenuated): 0.46 fold
- G2/M phase cell population, fold vs control ([3]; augmentation): 2.67 fold
- sub-G1 phase cell population, fold vs control ([3]; augmentation): 21.76 fold
- G0–G1 phase, fold vs control ([3]; reduced): 0.67 fold
- IC50 [4]: 5.9 ± 0.29 µM
- Mean tumour selectivity ([5]; S.I. WI-38/A549 and NCI-H23): 5.3
- IC50 ([5]; non-tumorigenic human lung WI-38 cell line): 19.5 ± 1.18 µM
- MIC [6]: 500 µg/mL (≈ 1410 µM)
- MIC ([6]; Mycobacterium tuberculosis, ATCC27294, 168 h, read-out: MIC): 250 µg/mL (≈ 703 µM)
- melting point: 190 to 193 °C
- IC50 [7]: 1.48 ± 0.08 µM
